Test results reported in patent US8183243B2, “Melanocortin receptor agonists” (LG Life Sciences Ltd., priority 2008, dated 2012).

Molecular target: T1, MC4R (Homo sapiens, UniProt P32245)
T1 construct: expressed in transfected cells; host or cells: HEK (Human Embryonic Kidney) permanent expression cell line HEK MC4R-Luc, co-expressing CRE-luciferase
Test: MCR agonistic activity (luciferase assay / cAMP accumulation assay) on MC4R
Type: cell-based
Conditions: HEK cell lines expressing MC4R; method A (CRE-luciferase) or B (cAMP accumulation), not said which; read-out: EC50 value, agonistic activity to MC4R (range per group of Examples)
How it was run: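 HEK cells stably expressing MC4R with a CRE-luciferase reporter treated 5 hours at 37 °C with serially diluted agonist (≤1% DMSO); luminescence expressed relative to 10 nM NDP-MSH, EC50 at half-maximal signal. Alternatively, cAMP measured after 30 minutes with compound plus 500 μM IBMX by [3H]-cAMP competition binding.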

T1 sequence (P32245 whole entry, species assumed): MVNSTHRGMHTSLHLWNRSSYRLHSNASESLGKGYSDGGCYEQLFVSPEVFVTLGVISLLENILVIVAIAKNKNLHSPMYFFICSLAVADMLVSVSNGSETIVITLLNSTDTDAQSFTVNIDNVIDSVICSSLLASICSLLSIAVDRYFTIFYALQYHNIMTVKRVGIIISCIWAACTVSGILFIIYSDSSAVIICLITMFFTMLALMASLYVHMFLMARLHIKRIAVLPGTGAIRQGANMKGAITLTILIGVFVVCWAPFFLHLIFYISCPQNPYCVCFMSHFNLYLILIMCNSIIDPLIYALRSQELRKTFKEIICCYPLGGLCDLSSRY

**Q.** Which EC50 does the source give for CC(C)N1CCN(C(=O)[C@@H]2C[C@H](N(C(=O)[C@@H]3CCCO3)C3CCC(C)(C)CC3)CN2C(=O)[C@@H]2CN(C3CCOCC3)C[C@H]2c2ccc(F)cc2F)CC1 [Example 47, (2S)-N-{(3S,5S)-1-{[(3S,4R)-4-(2,4-difluorophenyl)-1-(tetrahydro-2H-pyran-4-yl)pyrrolidin-3-yl]carbonyl}-5-[(4-isopropylpiperazin-1-yl)carbonyl]pyrrolidin-3-yl}-N-(4,4-dimethylcyclohexyl)tetrahydrofuran-2-carboxamide] here?
**A.** 10 to 100 nM

**Q.** For CC(C)N1CCN(C(=O)[C@@H]2C[C@H](N(C(=O)[C@@H]3CCCO3)C3CCC(C)(C)CC3)CN2C(=O)[C@@H]2CN(C3CCSCC3)C[C@H]2c2ccc(F)cc2F)CC1 [Example 48, (2S)-N-{(3S,5S)-1-{[(3S,4R)-4-(2,4-difluorophenyl)-1-(tetrahydro-2H-thiopyran-4-yl)pyrrolidin-3-yl]carbonyl}-5-[(4-isopropylpiperazin-1-yl)carbonyl]pyrrolidin-3-yl}-N-(4,4-dimethylcyclohexyl)tetrahydrofuran-2-carboxamide], which EC50 is on record?
**A.** 10 to 100 nM

**Q.** Which EC50 does the source give for CN1CCN(C(=O)[C@@H]2C[C@H](N(C(=O)C(C)(C)CO)C3CCC(C)(C)CC3)CN2C(=O)[C@@H]2CN(C3CCOCC3)C[C@H]2c2ccc(Cl)cc2)CC1 [Example 49, N-{(3S,5S)-1-{[(3S,4R)-4-(4-chlorophenyl)-1-(tetrahydro-2H-pyran-4-yl)pyrrolidin-3-yl]carbonyl}-5-[(4-methylpiperazin-1-yl)carbonyl]pyrrolidin-3-yl}-N-(4,4-dimethylcyclohexyl)-3-hydroxy-2,2-dimethylpropanamide] here?
**A.** 0.1 to 10 nM

**Q.** CN1CCN(C(=O)[C@@H]2C[C@H](N(C(=O)C(C)(C)C)C3CCC(F)(F)CC3)CN2C(=O)[C@@H]2CN(C3CCOCC3)C[C@H]2c2ccc(Cl)cc2)CC1 [Example 50, N-{(3S,5S)-1-{[(3S,4R)-4-(4-chlorophenyl)-1-(tetrahydro-2H-pyran-4-yl)pyrrolidin-3-yl]carbonyl}-5-[(4-methylpiperazin-1-yl)carbonyl]pyrrolidin-3-yl}-N-(4,4-difluorocyclohexyl)-2,2-dimethylpropanamide] was tested. Which EC50 did it give?
**A.** 0.1 to 10 nM

**Q.** With CN1CCN(C(=O)[C@@H]2C[C@H](N(C(=O)[C@@H]3CCCO3)C3CCC(F)(F)CC3)CN2C(=O)[C@@H]2CN(C3CCOCC3)C[C@H]2c2ccc(Cl)cc2)CC1 [Example 51, (2S)-N-{(3S,5S)-1-{[(3S,4R)-4-(4-chlorophenyl)-1-(tetrahydro-2H-pyran-4-yl)pyrrolidin-3-yl]carbonyl}-5-[(4-methylpiperazin-1-yl)carbonyl]pyrrolidin-3-yl}-N-(4,4-difluorocyclohexyl)tetrahydrofuran-2-carboxamide] as the compound, how does the EC50 read?
**A.** 10 to 100 nM

**Q.** CC(C)N1CCN(C(=O)[C@H]2C[C@H](N(C(=O)[C@@H]3CCCO3)C3CCC(C)(C)CC3)CN2C(=O)[C@@H]2CN(C3CCOCC3)C[C@H]2c2ccc(F)cc2F)CC1 [Example 52, (2S)-N-{(3S,5R)-1-{[(3S,4R)-4-(2,4-difluorophenyl)-1-(tetrahydro-2H-pyran-4-yl)pyrrolidin-3-yl]carbonyl}-5-[(4-isopropylpiperazin-1-yl)carbonyl]pyrrolidin-3-yl}-N-(4,4-dimethylcyclohexyl)tetrahydrofuran-2-carboxamide] was tested. Which EC50 did it give?
**A.** 0.1 to 10 nM

**Q.** CN1CCN(C(=O)[C@@H]2C[C@H](N(C(=O)C(C)(C)C)[C@H]3CC[C@@H](C)CC3)CN2C(=O)[C@@H]2CN(C3CCOCC3)C[C@H]2c2ccc(F)cc2F)CC1 [Example 53, N-{(3S,5S)-1-{[(3S,4R)-4-(2,4-difluorophenyl)-1-(tetrahydro-2H-pyran-4-yl)pyrrolidin-3-yl]carbonyl}-5-[(4-methylpiperazin-1-yl)carbonyl]pyrrolidin-3-yl}-2,2-dimethyl-N-(cis-4-methylcyclohexyl)propanamide] was tested. Which EC50 did it give?
**A.** 0.1 to 10 nM

**Q.** Which EC50 does the source give for CC(=O)N(C1CCC(C)CC1)[C@H]1C[C@H](C(=O)N2CCN(C)CC2)N(C(=O)[C@@H]2CN(C3CCOCC3)C[C@H]2c2ccc(Cl)cc2)C1 (stereo partly drawn) [Example 54, N-{(3S,5R)-1-{[(3S,4R)-4-(4-chlorophenyl)-1-(tetrahydro-2H-pyran-4-yl)pyrrolidin-3-yl]carbonyl}-5-[(4-methylpiperazin-1-yl)carbonyl]pyrrolidin-3-yl}-N-(4-methylcyclohexyl)acetamide] here?
**A.** 0.1 to 10 nM

**Q.** With CN1CCN(C(=O)[C@H]2C[C@H](N(C(=O)[C@@H]3CCCO3)C3CCC(C)(C)CC3)CN2C(=O)[C@@H]2CN(C3CC3)C[C@H]2c2ccc(Cl)cc2)CC1 [Example 55, (2S)-N-{(3S,5R)-1-{[(3S,4R)-4-(4-chlorophenyl)-1-cyclopropylpyrrolidin-3yl]carbonyl}-5-[(4-methylpiperazin-1-yl)carbonyl]pyrrolidin-3-yl}-N-(4,4-dimethylcyclohexyl)tetrahydrofuran-2-carboxamide] as the compound, how does the EC50 read?
**A.** 10 to 100 nM

**Q.** CN1CCN(C(=O)[C@@H]2C[C@H](N(C(=O)[C@@H]3CCCO3)[C@H]3CC[C@@H](C)CC3)CN2C(=O)[C@@H]2CN(C3CC3)C[C@H]2c2ccc(Cl)cc2)CC1 [Example 56, (2S)-N-{(3S,5S)-1-{[(3S,4R)-4-(4-chlorophenyl)-1-cyclopropylpyrrolidin-3-yl]carbonyl}-5-[(4-methylpiperazin-1-yl)carbonyl]pyrrolidin-3-yl}-N-(cis-4-methylcyclohexyl)tetrahydrofuran-2-carboxamide] was tested. Which EC50 did it give?
**A.** 10 to 100 nM

**Q.** Which EC50 does the source give for CN1CCN(C(=O)[C@H]2C[C@H](N(C(=O)[C@@H]3CCCO3)[C@H]3CC[C@@H](C)CC3)CN2C(=O)[C@@H]2CN(C3CC3)C[C@H]2c2ccc(Cl)cc2)CC1 [Example 57, (2S)-N-{(3S,5R)-1-{[(3S,4R)-4-(4-chlorophenyl)-1-cyclopropylpyrrolidin-3-yl]carbonyl}-5-[(4-methylpiperazin-1-yl)carbonyl]pyrrolidin-3-yl}-N-(cis-4-methylcyclohexyl)tetrahydrofuran-2-carboxamide] here?
**A.** 10 to 100 nM

**Q.** With CN1CCN(C(=O)[C@@H]2C[C@H](N(C(=O)C(C)(C)CO)C3CCC(C)(C)CC3)CN2C(=O)[C@@H]2CN(C3CC3)C[C@H]2c2ccc(Cl)cc2)CC1 [Example 58, N-{(3S,5S)-1-{[(3S,4R)-4-(4-chlorophenyl)-1-cyclopropylpyrrolidin-3-yl]carbonyl}-5-[(4-methylpiperazin-1-yl)carbonyl]pyrrolidin-3-yl}-N-(4,4-dimethylcyclohexyl)-3-hydroxy-2,2-dimethylpropanamide] as the compound, how does the EC50 read?
**A.** 0.1 to 10 nM

**Q.** CN1CCN(C(=O)[C@@H]2C[C@H](N(C(=O)C(C)(C)CO)[C@H]3CC[C@@H](C)CC3)CN2C(=O)[C@@H]2CN(C3CC3)C[C@H]2c2ccc(Cl)cc2)CC1 [Example 59, N-{(3S,5S)-1-{[(3S,4R)-4-(4-chlorophenyl)-1-cyclopropylpyrrolidin-3-yl]carbonyl}-5-[(4-methylpiperazin-1-yl)carbonyl]pyrrolidin-3-yl}-N-(cis-4-methylcyclohexyl)-3-hydroxy-2,2-dimethylpropanamide] was tested. Which EC50 did it give?
**A.** 0.1 to 10 nM

**Q.** With CN1CCN(C(=O)[C@@H]2C[C@H](N(C(=O)C(C)(C)CO)[C@H]3CC[C@@H](C)CC3)CN2C(=O)[C@@H]2CN(C3CC3)C[C@H]2c2ccc(F)cc2F)CC1 [Example 60, N-{(3S,5S)-1-{[(3S,4R)-1-cyclopropyl-4-(2,4-difluorophenyl)pyrrolidin-3-yl]carbonyl}-5-[(4-methylpiperazin-1-yl)carbonyl]pyrrolidin-3-yl}-N-(cis-4-methylcyclohexyl)-3-hydroxy-2,2-dimethylpropanamide] as the compound, how does the EC50 read?
**A.** 0.1 to 10 nM

**Q.** For CC(=O)N([C@H]1C[C@H](C(=O)N2CCN(C)CC2)N(C(=O)[C@@H]2CN(C(C)C)C[C@H]2c2ccc(Cl)cc2)C1)[C@H]1CC[C@@H](C)CC1 [Example 62, N-{(3S,5R)-1-{[(3S,4R)-4-(4-chlorophenyl)-1-isopropylpyrrolidin-3-yl]carbonyl}-5-[(4-methylpiperazin-1-yl)carbonyl]pyrrolidin-3-yl}-N-(cis-4-methylcyclohexyl)acetamide], which EC50 is on record?
**A.** 10 to 100 nM

**Q.** Which EC50 does the source give for Cc1ccc(N2C[C@@H](C(=O)N3C[C@@H](N(C(=O)C(C)(C)C)C4CCC(C)(C)CC4)C[C@H]3C(=O)N3CCN(C)CC3)[C@H](c3ccc(Cl)cc3)C2)nn1 [Example 63, N-{(3S,5S)-1-{[(3S,4R)-4-(4-chlorophenyl)-1-(6-methylpyridazine-3-yl)pyrrolidin-3-yl]carbonyl}-5-[(4-methylpiperazin-1-yl)carbonyl]pyrrolidin-3-yl}-N-(4,4-dimethylcyclohexyl)-2,2-dimethylpropanamide] here?
**A.** 10 to 100 nM

**Q.** For CN1CCN(C(=O)[C@@H]2C[C@H](N(C(=O)C(C)(C)C)C3CCC(C)(C)CC3)CN2C(=O)[C@@H]2CN(c3ccccn3)C[C@H]2c2ccc(Cl)cc2)CC1 [Example 64, N-{(3S,5S)-1-{[(3S,4R)-4-(4-chlorophenyl)-1-pyridine-2-ylpyrrolidin-3-yl]carbonyl}-5-[(4-methylpiperazin-1-yl)carbonyl]pyrrolidin-3-yl}-N-(4,4-dimethylcyclohexyl)-2,2-dimethylpropanamide], which EC50 is on record?
**A.** 10 to 100 nM

**Q.** With CN1CCN(C(=O)[C@@H]2C[C@H](N(C(=O)[C@@H]3CCCO3)C3CCC(C)(C)CC3)CN2C(=O)[C@@H]2CN(c3ccccn3)C[C@H]2c2ccc(Cl)cc2)CC1 [Example 65, (2S)-N-{(3S,5S)-1-{[(3S,4R)-4-(4-chlorophenyl)-1-pyridine-2-ylpyrrolidin-3-yl]carbonyl}-5-[(4-methylpiperazin-1-yl)carbonyl]pyrrolidin-3-yl}-N-(4,4-dimethylcyclohexyl)tetrahydrofuran-2-carboxamide] as the compound, how does the EC50 read?
**A.** 0.1 to 10 nM

**Q.** For CC1CCC(N(C(=O)C2CCCO2)C2CC(C(=O)N3CCN(C)CC3)N(C(=O)C3CN(c4cccnn4)CC3c3ccc(F)cc3F)C2)CC1 (centres unmarked) [Example 66], which EC50 is on record?
**A.** 0.1 to 10 nM

**Q.** CN1CCN(C(=O)[C@@H]2C[C@H](N(C(=O)C(C)(C)C)C3CCC(C)(C)CC3)CN2C(=O)[C@@H]2CN(c3ncccn3)C[C@H]2c2ccc(Cl)cc2)CC1 [Example 67, N-{(3S,5S)-1-{[(3S,4R)-4-(4-chlorophenyl)-1-pyrimidine-2-ylpyrrolidin-3-yl]carbonyl}-5-[(4-methylpiperazin-1-yl)carbonyl]pyrrolidin-3-yl}-N-(4,4-dimethylcyclohexyl)-2,2-dimethylpropanamide] was tested. Which EC50 did it give?
**A.** 1000 to 10000 nM
